Format in all cases: cell-based, Human
The subject of one experiment is U87 GBM cells. As to the kind of experiment: XTT cell viability assay on U87. The conditions noted are these: 48 hours; Doxorubicin up to 50 μg/mL. The method, then:
Cell cultures—Human glioblastoma A172 (ATCC®CRL-1620™) was cultured in DMEM (01-055-1A, Biological Industries, Israel) and U87MG (U87; ATCC®HTB-14™) in EMEM (01-058-1A; Biological Industries, Israel). Both media were supplemented with 10% fetal bovine serum (FBS, 04-127-1A, Biological Industries, Israel), 1% Pen-Strep, 1% L-Glutamine and 0.02% plasmocin (i.e., complete medium). Cells were incubated at 37° C. in a humidified atmosphere containing 5% CO2—95% air. Serum free media (SFM) was composed of DMEM/F12 (01-170-1A; Biological Industries, Israel), including all the supplements above except for FBS. Neurosphere media for A172 was composed of SFM with 2% B-27; Neurosphere media for U87 was serum-free EMEM without B27. For Glioblastoma stem cells (GSCs) cultures all human materials were used in accordance with the policies of the Henry Ford Hospital Institutional Review Board. Generation of GSCs from fresh GBM specimens and their characterization have been recently described. […]
Cell viability assays—Cells were seeded in 96-well plates at density of 2×10^4 per well (100 μL/well) in SFM (for A172) or complete medium (for U87) and were incubated at 37° C. overnight to allow attachment. […] Absorbance was recorded by a Synergy H1 hybrid reader photometer (BioTek) at 490 nm with 650 nm of reference wavelength. […]
On the technique in general: Formazan colour is commonly taken as a measure of viable cells.

Experiment [1] deals with A172 cells. As to the kind of experiment: F-actin staining, confocal imaging of A172 cytoskeleton. The following applies: 24 hours; F4 12 μg/mL, F5 10 μg/mL, Doxo 0.5 μg/mL. As to the method:
Cell staining—EasyProbes™ ActinRed 555 Stain was used for F-actin staining and Hoechst 33342 (ABP Biosciences, USA) for nuclei staining, according to the manufacturer's instructions. Briefly, cells were seeded on confocal dishes (D35-20-1.5-N, Cellvis, USA) at a density of 2×10^4 in 500 μL complete medium. Following 24 hours incubation, the indicated treatments at different concentrations were added for additional 24 hours. For the staining process, cells were washed with PBS and fixed with 3.7% formaldehyde solution in PBS and incubated at room temperature for 10 minutes followed by incubation in 0.1% Triton X-100 (T8787; Sigma Aldrich, USA) for 5 minutes, washing with PBS and incubation in 1% BSA (A7284; Sigma Aldrich, USA) solution for 30 minutes. Two drops of EasyProbes™ Actin and of Hoechst were applied to each of the samples for 20 minutes. […] The number of F-actin filaments was quantified as the number of filaments that crosse a line that is drawn electronically across the soma. Percentage of filaments in the different treatments was calculated out of the average number of filaments in the control.

The test system of experiment [2] is A172 cells. As to the kind of experiment: Cell cycle analysis, PI staining, FACS, A172. The conditions noted are these: 24 hours; SM 10 μg/mL, Doxo 0.5 μg/mL; control 10.2%. The method, then:
Cell cycle analysis—A172 cells were seeded in 6-well TC plate at a concentration of 4×10^5 cells in 2 mL of SFM per well. Following 24 hours incubation, cells were treated with indicated treatments in complete medium for 24 hours. Methanol and doxorubicin were used as negative and positive controls, respectively. Cells were harvested and centrifuged for 5 minutes at 1600 rpm. Cell pellets were washed once with 1 mL of PBS and fixed with 70% cold ethanol overnight at −20° C. The fixed cells were washed twice with 1 mL of PBS and stained with 250 μL of PI solution (50 μg/mL) containing RNase A (100 μg/mL) for 30 minutes in dark conditions. 250 μL PBS was added to each tube and the cells were analyzed using FACS.

The subject of experiment [3] is A172 cells. As to the kind of experiment: Scratch-wound assay, A172 cell migration. The following applies: 36 hours; F4 20, F4-SM 11.5, F5 20, F5-SM 11.5, Doxo 0.5 μg/mL. As to the method:
Scratch-wound assay—A172 cells were seeded in a 96-well plate at a density of 2×10^4 per well in 100 μL of complete medium. Following 24 hours, cells in each well were scratched perpendicularly across the center of the well with a 200 μL pipette tip to produce a cell-free area for investigating the ability of the cells to migrate and close the gap under different treatments. Immediately following scratching, 100 μL of treatment solution was added. Photos were taken by a CARL ZEISS inverted microscope coupled with a camera at 0, 14, 20, and 36 hours following scratching, and the gap area was measured using ImageJ (version 1.53a). The scratch area, indicated by cells migrated into the scratch was calculated as percent of scratch area at time x from time 0: […]

Take `COc1cccc2c1C(=O)c1c(O)c3c(c(O)c1C2=O)C[C@@](O)(C(=O)CO)C[C@@H]3O[C@H]1C[C@H](N)[C@H](O)[C@H](C)O1` [Doxorubicin]: in the experiment on U87 GBM cells, the “activity on the U87 cell line” value is recorded as “only moderately active on this cell line”. In addition, the “F-actin network / structures” value in the experiment on A172 cells [1] is recorded as “less pronounced in comparison to that of F4 or F5”. In the experiment on A172 cells [2], the “percentage of cells in the G2-M phase” value is recorded as 11.6%. Also, the “inhibition of cell migration in comparison to the vehicle control” value with A172 cells [3] came to 28.8%.

Source of the values: patent publication US20240165135A1, “COMPOSITIONS AND METHODS FOR THE TREATMENT OF CANCER” (The State of Israel, Ministry of Agriculture & Rural …, priority 2021, published 2024).
